Assay [1] deals with U-87 MG. The assay can be described thus: Induction of oxidative stress in human U-87 MG cells assessed as reduction in GLuc expression at 3 to 6 uM incubated for 18 hrs in the presence of NAC. It is filed as functional, cell-based. The settings on record: U-87MG ATCC, dose 3-6 µM.
Assay [2] concerns U-87 MG. Kind of assay: Induction of oxidative stress in human U-87 MG cells assessed as reduction in GLuc expression at 3 to 6 uM incubated for 18 hrs. The following applies: U-87MG ATCC, dose 3-6 µM. It is filed as functional, cell-based.
Assay [3] concerns U-87 MG. Kind of assay: Induction of oxidative stress in human U-87 MG cells cultured with GLuc assessed as change in cell viability at 3 to 6 uM incubated for 18 hrs by CellTiter-Glo luminescent assay. The class given is functional, cell-based. The settings on record: U-87MG ATCC, dose 3-6 µM. (In general: In ATP-based viability assays light output follows the ATP content of the culture.)

The subject of a further assay is Acinetobacter baumannii. Kind of assay: Antimicrobial activity against Acinetobacter baumannii ATCC BAA-1605 at 0.14 mg/mL in broth medium incubated for 14 to 16 hrs by Synergy4 plate reader analysis. It is filed as functional, organism-based. The following applies: time 14-16 hrs.
The test system of another assay is Pseudomonas aeruginosa. The assay can be described thus: Antimicrobial activity against Pseudomonas aeruginosa ATCC […] at 0.14 mg/mL in broth medium incubated for 14 to 16 hrs by Synergy4 plate reader analysis. The class given is functional, organism-based. The following applies: time 14-16 hrs.
Another assay concerns Klebsiella pneumoniae. The assay can be described thus: Antimicrobial activity against Klebsiella pneumoniae ATCC BAA-2344 at 0.14 mg/mL in broth medium incubated for 14 to 16 hrs by Synergy4 plate reader analysis. It is filed as functional, organism-based. The settings on record: time 14-16 hrs.
The next assay deals with Escherichia coli. The assay can be described thus: Antimicrobial activity against Escherichia coli ATCC BAA-2523 at 0.14 mg/mL in broth medium incubated for 14 to 16 hrs by Synergy4 plate reader analysis. The class given is functional, organism-based. The following applies: time 14-16 hrs.
Another assay deals with Staphylococcus aureus. Kind of assay: Antimicrobial activity against Staphylococcus aureus subsp. aureus ATCC 700698 at 0.14 mg/mL in broth medium incubated for 14 to 16 hrs by Synergy4 plate reader analysis. It is filed as functional, organism-based. The settings on record: time 14-16 hrs.
The test system of a further assay is Enterococcus faecium. Kind of assay: Antimicrobial activity against Enterococcus faecium ATCC BAA-2317 at 0.14 mg/mL in broth medium incubated for 14 to 16 hrs by Synergy4 plate reader analysis. The class given is functional, organism-based. The following applies: time 14-16 hrs.
In a further assay the test system is Candida albicans. Kind of assay: Antimicrobial activity against Candida albicans ATCC MYA-574 at 0.14 mg/mL in broth medium incubated for 14 to 16 hrs by Synergy4 plate reader analysis. It is filed as functional, organism-based. The following applies: time 14-16 hrs.
For a further assay, the system named is Cryptococcus neoformans. Kind of assay: Antimicrobial activity against Cryptococcus neoformans var. grubii ATCC 90112 at 0.14 mg/mL in broth medium incubated for 14 to 16 hrs by Synergy4 plate reader analysis. The settings on record: time 14-16 hrs. It is filed as functional, organism-based.
The next assay concerns HCT-116. Kind of assay: Cytotoxicity against human HCT-116 cells incubated for 72 hrs by CellTiter-Glo assay. The class given is functional.
In a further assay the test system is SH-SY5Y. The assay can be described thus: Cytotoxicity against human SH-SY5Y cells assessed as reduction in cell viability at 10 uM incubated for 72 hrs by CellTiter-Glo assay. The class given is functional.

Active and inactive are the calls of the source. The rule behind the calls is not given here.

With `C=C(C)[C@H]1Cc2c(ccc3c2O[C@@H]2COc4cc(OC)c(OC)cc4[C@@H]2C3=O)O1`, the result in the assay with U-87 MG [1] was inactive.
Consider `CCCCCCCC[C@H]1OC(=O)[C@H](CC(C)C)N(C)C(=O)[C@H](C(C)C)NC(=O)[C@@H](Cc2ccccc2)NC(=O)[C@H]([C@@H](C)CC)OC(=O)[C@H]([C@@H](C)OC)NC(=O)[C@H](C)NC(=O)[C@H](CC(C)C)NC1=O` (stereo in doubt; 2a) [listing 1 of 2 here], for which the outcome with U-87 MG [1] was inactive.
`CCCCCCCC[C@H]1OC(=O)[C@H](CC(C)C)N(C)C(=O)[C@H](C(C)C)NC(=O)[C@@H](Cc2ccccc2)NC(=O)[C@H]([C@@H](C)CC)OC(=O)[C@H]([C@@H](C)OC)NC(=O)[C@H](C)NC(=O)[C@H](CC(C)C)NC1=O` (stereo in doubt; 2): in the assay on U-87 MG [2], the outcome was Active. Besides, the result with U-87 MG [3], with U-87 MG [1], with Acinetobacter baumannii, with Pseudomonas aeruginosa, in the assay on Klebsiella pneumoniae and in the assay on Escherichia coli was inactive. In addition, the outcome with Staphylococcus aureus, in the assay with Enterococcus faecium, in the assay with Candida albicans and in the assay on Cryptococcus neoformans was inactive.
For orientation: CC50 means the concentration giving 50% cytotoxicity. A higher CC50 goes with lower toxicity to the cells. `CCCCCCCC[C@H]1OC(=O)[C@H](CC(C)C)N(C)C(=O)[C@H](C(C)C)NC(=O)[C@@H](Cc2ccccc2)NC(=O)[C@H]([C@@H](C)CC)OC(=O)[C@H]([C@@H](C)OC)NC(=O)[C@H](C)NC(=O)[C@H](CC(C)C)NC1=O` (stereo in doubt; 2a) [listing 2 of 2 here] showed a CC50 in the assay with HCT-116 of 1750 nM. Also, in the assay on SH-SY5Y, the Activity is given as ~50%.
In the case of `COc1ccc(C[C@H](NC(=O)/C(C)=C/[C@H]2CSC([C@@H](C)[C@@H](O)C[C@H](C)C[C@H](O)C(C)(C)C)=N2)C(=O)N(C)[C@@H](C)C(=O)N(C)[C@@H]2C(=O)N3CCC[C@H]3C(=O)OC(C)[C@@H]2C)cc1` (some centres undefined), the outcome with U-87 MG [1] was Active.
On to `CCCCCCCCCC[C@H]1OC(=O)[C@H](CC(C)C)N(C)C(=O)[C@H](C(C)C)NC(=O)[C@@H](Cc2ccccc2)NC(=O)[C@H]([C@@H](C)CC)OC(=O)[C@H]([C@@H](C)OC)NC(=O)[C@H](C)NC(=O)[C@H](CC(C)C)NC1=O`, for which the result in the assay with U-87 MG [2], with U-87 MG [3], in the assay on U-87 MG [1], with SH-SY5Y, in the assay on Acinetobacter baumannii and in the assay on Pseudomonas aeruginosa was inactive. Further, the outcome in the assay with Klebsiella pneumoniae, with Escherichia coli, with Staphylococcus aureus, with Enterococcus faecium, in the assay on Candida albicans and with Cryptococcus neoformans was inactive. The compound also came in with a half-maximal cytotoxic concentration (CC50) with HCT-116 of 3290 nM.

(Values after ChEMBL document CHEMBL6103655, “Structure and Synthesis of Amatyemides A and B, Cyclic Octadepsipeptides from South African Stromatolites” (2025).)
